The text below walks through data of PMC7411710, “Biocatalysis of D,L-Peptide Nanofibrillar Hydrogel” (Molecules, 2020).

Series [1] is described as follows: water solubility (observation). The note with it: neutral pH. Format: physicochemical.
Another series is described as follows: oscillatory rheometry. It counts as physicochemical. The conditions noted are these: 10 mM; 1 Hz; 25 °C. On the procedure:
His–Leu–^DLeu–Ile–His–Leu–^DLeu–Ile (Scheme 1) was synthesized in solid phase and purified by reverse-phase HPLC, following published procedures. Peptide identity and purity was confirmed by ^1H-NMR and electrospray ionization (ESI)-MS (see Supplementary Materials). […] A pH change to neutral was then used to trigger fibrillization, which, at higher concentrations, led to the formation of self-supportive hydrogels, with a minimum gelling concentration (mgc) of 10 mM. The viscoelastic properties of the hydrogel were assessed by oscillatory rheometry (see Supplementary Materials). At mgc, the peptide gelled immediately and reached a G′ of 1 kPa, which remained stable over time. Frequency sweeps confirmed G′ > G″, with both values being independent of applied frequency, as expected for a stable hydrogel. Stress sweeps confirmed a linear viscoelastic region until 1 Pa, with a gel-to-sol transition occurring above 10 Pa.
Dynamic time sweep rheological analysis was conducted on a Malvern Kinexus Ultra Plus Rheometer (Alfatest, Milan, Italy) with a 20-mm stainless-steel parallel plate geometry. […] Samples were prepared in situ and immediately analyzed with a gap of 1 mm. Time sweeps were recorded using a frequency of 1 Hz and a controlled stress of 0.50 Pa. Frequency sweeps were recorded using a controlled stress of 0.50 Pa, and then stress sweeps were recorded using a frequency of 1 Hz.

For series [2] the following is noted: pH 7.4; without Zn2+; cited from earlier work. From the text:
Table 2 Comparison of catalytic performance with literature data on short peptides without Zn^2+. | column: kcat/KM (s^−1M^−1)

For series [3] the following is noted: cited from earlier work. The source says: However, at present, it is still not possible to predict exactly the performance of a de novo designed peptide. Amongst the various approaches to achieve a self-assembling short peptide, an attractive strategy features the inclusion of both D- and L-amino acids at specific positions along a heterochiral sequence, whereby nanostructured hydrogels can be formed even with just three amino acids, while their homochiral isomers typically precipitate in water. These supramolecular systems feature amphipathic assemblies, whereby the different stereoconfiguration allows displaying hydrophobic s ...

Non-standard residues stand in square brackets, D forms with d. Residues, ends and D or L forms follow the SMILES beside them.

Regarding `CC[C@H](C)[C@H](NC(=O)[C@@H](CC(C)C)NC(=O)[C@H](CC(C)C)NC(=O)[C@H](Cc1c[nH]cn1)NC(=O)[C@@H](NC(=O)[C@@H](CC(C)C)NC(=O)[C@H](CC(C)C)NC(=O)[C@@H](N)Cc1c[nH]cn1)[C@@H](C)CC)C(=O)O` [His–Leu–^DLeu–Ile–His–Leu–^DLeu–Ile] (H-HL[dL]IHL[dL]I-OH), the water solubility entry in series [1] was “limited water solubility”. Moreover, the “gel-to-sol transition (stress sweep)” value in “oscillatory rheometry” is on record as “above 10 Pa”.

For the compound “H2KLLLAAA(Nε-palmytoyl)K-NH2 [peptide amphiphile reported by Guler and Stupp]”, the kcat/KM in series [2] is given as 20 s^−1M^−1.

For the compound “HSGQQKFQFQFEQQ [self-assembling His peptide, literature catalyst]”, the kcat/KM in series [2] is reported as 0.09 s^−1M^−1.

With His–^DPhe–^DPhe, the “concentration of hydrogel formation” value in series [3] was 50000 µM.
